Laboratory results reported in US11154551B2, “HDAC1,2 inhibitors and methods of using the same” (UNIVERSITY OF UTAH RESEARCH FOUNDATION, priority 2014, dated 2021).

How the values were obtained:
Type in all cases: cell-based, human
[1] = test system: SUDHL4 and Karpas-422 cells; experiment: γH2AX foci formation by immunofluorescence
Experimental: The percentage of cells with 6 or greater γH2AX foci were counted in three independent experiments and at least 100 cells were counted in each experiment. […] Histones were purified using trichloroacetic acid extraction protocol (see Example 1). Western blot analysis was done with anti-γH2AX and histone H2AX served as the loading control. […] Following DMSO or ACY957 treatment, cells were exposed to a 5Gy dose of ionizing radiation and allowed to recover for 30 minutes prior to chromatin extraction. Western blot analysis was done with anti-γH2AX where total histone H2AX served as a loading control. (D): Karpas-422 cells were micro-irradiated with laser and allowed to recover for 15 minutes before fixation and immunofluorescence staining with anti-γH2AX, anti-HDAC1 and anti-HDAC2 antibodies was done.
Immunofluorescence. Cells were fixed in either 10% formalin or methanol-acetone (1:1) for 10 min at −20*C. The cells were then permeabilized with 0.5% Triton-X-100 in PBS for 5 min at room temperature (RT), blocked in 10% normal goat serum (Sigma) for 30 min and stained with primary antibody for 1 h at RT. Cells were incubated with secondary antibody (anti-mouse or anti-rabbit IgG, Alexa Fluor 488/546) at a 1:600 dilution for 45 min at RT, and counterstained with Hoechst 33342 (Sigma) at 1:1000 dilution to visualize the nuclei. Images were captured using Zeiss Axioskop mot plus microscope with a 40× lens and analyzed using the AxioVision software.

Karpas-422 cells = experiment: ChIP of H3K27ac and H3K27me3 at BMF and TP63 promoters; details: 2 μM, vs DMSO
Text: RNA samples obtained from three independent treatments were subjected to RiboZero stranded sequencing using the Illumina Hiseq2000 sequencer. RNA-seq data from ACY-957-treated samples was compared to the publically available RNA seq data set from Karpas-422 cells following GSK126 treatment of Karpas-422 cells. Venn diagrams were made using the R package VennDiagram. Genes with adjusted p-value<0.05 and absolute log 2 fold change>0.585 were used in this analysis. (B): Pathway analysis of the 71 commonly up regulated genes was performed. Screen shots of the pathways that were misregulated in both ACY-957-treated Karpas-422 cells and in Karpas-422 cells following GSK-126 treatment. […] (C): Base read depth, scaled per million mapped reads, for BMF and Tp63 genes in DMSO- or ACY-957-treated Karpas-422 cells. […] Fold-increase as determined by real-time PCR analysis in H3K27ac relative to total H3 occupancy was calculated for both ACY-957-treated and DMSO-treated samples and the relative fold-enrichment of H3K27ac and […] in ACY-957-treated samples was calculated following normalization to DMSO-treated samples. The data represented an average fold-change calculated from three independent experiments+/−standard error. *p=0.003 and **p=0.004 (E): ChIP analysis of HDAC1 and HDAC2 at the promoters of BMF and Tp63 genes was performed in Karpas-422 cells. […]

[2] = test system: SupB15 (Ph+PreB-ALL) cells; experiment: γH2AX immunofluorescence; details: 2 μM, 48 hours
Experimental: SupB15 cells were treated with 2 μM ACY1035, ACY1071, ACY957, or solvent (DMSO) for 48 hours. (A) Immunofluorescence with γH2AX was performed on treated SupB15 cells. The number of γH2AX foci was counted in around 100 cells for each treatment and classified into cells with no foci, 1-5, 6-10, and greater than 10 foci. (B) SupB15 cells treated with DMSO or ACY1035 for 48 hours were tested via neutral comet assay to measure the amount of double-strand breaks (DSBs), indicated by the tail.
BCR-ABL promotes DNA repair to prevent DNA damage accumulation in Philadelphia chromosome-positive (Ph+) leukemia cells. To examine the effect of various HDAC1,2-selective inhibitors on DNA repair and DNA damage response in Pre-B-ALL cells that express BCR-ABL, SupB15 (Ph+PreB-ALL) cells were treated with 2 μM ACY1035 or 2 μM ACY1071 or 2 μM ACY957 for 48 hours.

Nc1ccc(-c2cccs2)cc1NC(=O)c1ccc2nc(N3CCNCC3)ccc2c1 [ACY-957, N-(2-amino-5-(thiophen-2-yl)phenyl)-2-(piperazin-1-yl)quinoline-6-carboxamide]
cells with γH2AX foci ([1]; 48 h, 2 μM ACY-957, 0.5 μM DZNEP, 0.5 μM GSK126): significant increase in the number of cells with greater than six γH2AX foci
γH2AX foci by immunofluorescence ([1]; EZH2GOF DLBCL cells): increase in γH2AX
H3K27ac at promoter regions of TP63 and BMF (Karpas-422 cells): increase in H3K27ac levels at the promoter regions of both TP63 and BMF genes
H3K27me3 at TP63 and BMF promoters (Karpas-422 cells): concomitant decrease in H3K27me3 was not observed
DNA damage, quantitation of γH2AX foci [2]: statistically significant increase in DNA damage
